{
  "source": "patent US4731109A",
  "about": "“Herbicidal 2-haloacetanilides” (Monsanto Company, priority 1982, dated 1988)",
  "format_in_all_cases": "in vivo",
  "key": {"common purslane": {"system": "common purslane", "test": "Greenhouse pre-emergence GR15/GR85 selectivity test", "conditions": "Table XV", "method_in_brief": "(§1)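 Pre-emergence soil-incorporation test: seeded pans were covered with topsoil mixed with active ingredient (in solvent or as wettable powder), overhead-irrigated (0.64 cm) or not, then subirrigated. Plants were scored about 2-3 weeks after treatment. GR15/GR85 rates are in kg/ha, and selectivity factor is crop GR15 divided by weed GR85.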"}, "prickly sida": {"system": "prickly sida", "test": "Greenhouse pre-emergence GR15/GR85 selectivity test", "conditions": "Table XV", "method_in_brief": "as §1"}, "redroot pigweed": {"system": "redroot pigweed", "test": "Greenhouse pre-emergence GR15/GR85 selectivity test", "conditions": "Table XV", "method_in_brief": "as §1"}, "purple nutsedge": {"system": "purple nutsedge", "test": "Greenhouse pre-emergence GR15/GR85 selectivity test", "conditions": "Table XV", "excerpt": "(§2) A good grade of top soil is placed in aluminum pans and compacted to a depth of three-eighths to one-half inch from the top of the pan. On the top of the soil is placed a number of seeds or vegetative propagules of various plant species. The soil required to level fill the pans after seeding or adding vegetative propagules is weighed into a pan. The soil and a known amount of the active ingredient applied in a solvent or as a wettable powder suspension are thoroughly mixed, and used to cover the prepared pans. After treatment, the pans are given an initial overhead irrigation of eater, equivalent to one-fourth inch (0.64 cm) rainfall, then watered by subirrigation as need to give adequate moisture for germination and growth. As an alternative procedure, the overhead irrigation may be omitted. Observations are made about 2-3 weeks after seeding and treatment.\n(§3) In the discussion and tables of data below, reference is made to herbicide application rates symbolized as \"GR15 \" and \"GR85 \"; these rates are given in kilograms per hectare (kg/ha) which are convertible into pounds per acre (lbs/A) by dividing the kg/ha rate by 1.12.\n(§4) A further guide to the effectiveness of a chemical as a selective herbicide is the \"selectivity factor\" (\"SF\") for a herbicide in given crops and weeds. The selectivity factor is a measure of the relative degree of crop safety and weed injury and is expressed in terms of the GR15 /GR85 ratio, i.e., the GR15 rate for the crop divided by the GR85 rate for the weed, both rates in kg/ha (lb/A). In the tables below, selectivity factors are shown in parenthesis following the GR85 rate for each weed; the symbol \"NS\" indicates \"non-selective\". Marginal or undetermined selectivity is indicated by a dash (--).\n(§5) Additionally, pre-emergence herbicidal data from other tests have established that compounds according to this invention also selectively suppress quackgrass, yellow nutsedge and/or other weeds in one or more of the crops cotton, peanuts, bush beans and/or rape. For example, in Table VI are presented data showing the herbicidal selectivity of the compounds of Examples 1 and 2 against quackgrass in rape and snap beans. Unless otherwise noted; greenhouse tests in Table VI and in other tables below involved herbicide treatments by soil incorporation and an initial overhead irrigation followed by subirrigation as described above.\nIn other greenhouse tests, compounds according to this invention have shown selective control of a variety of annual and perennial weeds in various crops. As further illustrative, the compound of Example 1 selectively controlled purple nutsedge in both corn nd soybeans, the respective crop/weed GR15 /GR85 ratios (expressed in kg/ha) being 0.67/0.25 (S.F.=2.7) in corn and 1.1/0.25 (S.F.=4.5) in soybeans. The compound of Example 8 has shown selective control of yellow nutsedge and quackgrass in corn and soybeans. The respective crop/yellownutsedge GR15 /GR85 ratios being >2.2/0.95 (S.F.=2.5) in corn; 2.2/0.5 (SF=4.5) in soybeans and the respective GR15 /GR85 ratios for both corn and soybeans in quackgrass being >2.2/0.5 (S.F.=4.5). In a test against yellow nutsedge in cotton, the GR15 /GR85 ratio (average of two replicates) was 2.0/0.95 (S.F.=2).\nIn another greenhouse test, the compounds of Examples 3-5, 9 and 10 were tested for their herbicidal efficacy against a variety of resistant annual and perennial weeds in rape."}, "lima beans": {"system": "lima beans", "test": "Greenhouse pre-emergence GR15/GR85 selectivity test", "conditions": "Table XVI", "excerpt": "as §2, §3, §4, §5\n(§6) Additional greenhouse tests were made to test certain compounds of this invention against a plurality of problem weeds in peanuts and lima beans; except for fall panicum, the test weeds are particularly resistant weeds; the test data is set forth in Table XVI.\n(§7) In Table XVI, the selectivity factors for the test compounds for each weed in lima beans is shown as the first or upper value in parenthesis and the selectivity factors for each weed in peanuts is shown as the second or lower value in parenthesis for each compound. For example, the selectivity factor for the compound of Example 3 for seedling johnsongrass in lima beans is 2.1 and in peanuts, >4.9; the selectivity factor for Texas panicum in lima beans is 1.1 and in peanuts, >2.6, etc."}, "peanuts": {"system": "peanuts", "test": "Greenhouse pre-emergence GR15/GR85 selectivity test", "conditions": "Table XVI", "excerpt": "as §2, §3, §4, §5, §6, §7"}, "Barnyardgrass": {"system": "Barnyardgrass", "test": "Resistance to leaching and resulting herbicidal efficacy", "conditions": "for inhibition at 140 g/ha / inhibition at 560 g/ha / inhibition at 2360 g/ha: Echinochloa crus-galli, read-out: Percent Inhibition", "procedure": "Laboratory tests were conducted to determine the resistance of herbicides according to this invention to leaching into the soil and resulting herbicidal efficacy. […] The pots containing the treated soil were subjected to leaching by placing on a turntable which rotated under two nozzle tips of a water container calibrated to deliver one inch (2.5 cm) of water per hour simulating rainfall. Leaching rates were adjusted by varying the amount of time on the turntable. Water was delivered to the soil in the pots and allowed to percolate through the filter paper and drainage holes. The pots were then allowed to sit for three days at ambient room temperature. The treated soil in the pots was then removed, crumbled and placed as a surface layer on top of other pots containing the above soils seeded with barnyardgrass seeds. The pots were then placed on greenhouse benches, sub-irrigated and allowed to grow for 2-3 weeks. Visual ratings of percent growth inhibition compared to control (untreated) pots and fresh weights for barnyardgrass were recorded; the data from the control represents six replications and that for the test compounds three replications; test data are shown in Table XVIII."}, "[1]": {"conditions": "Ray silt loam, 0.14 Kg/Ha, rain 0 cm"}, "[2]": {"conditions": "Ray silt loam, 0.14 Kg/Ha, rain 1.27 cm"}, "[3]": {"conditions": "Ray silt loam, 0.14 Kg/Ha, rain 5.08 cm"}, "[4]": {"conditions": "Ray silt loam, 0.56 Kg/Ha, rain 0 cm"}, "[5]": {"conditions": "Ray silt loam, 0.56 Kg/Ha, rain 1.27 cm"}, "[6]": {"conditions": "Ray silt loam, 0.56 Kg/Ha, rain 5.08 cm"}, "[7]": {"conditions": "Ray silt loam, 0.56 Kg/Ha, rain 10.16 cm"}, "[8]": {"conditions": "Ray silt loam, 2.36 Kg/Ha, rain 0 cm"}, "[9]": {"conditions": "Ray silt loam, 2.36 Kg/Ha, rain 1.27 cm"}, "[10]": {"conditions": "Ray silt loam, 2.36 Kg/Ha, rain 5.08 cm"}, "[11]": {"conditions": "Ray silt loam, 2.36 Kg/Ha, rain 10.16 cm"}, "[12]": {"conditions": "Ray silt loam, 0.14 Kg/Ha, rain 10.16 cm"}},
  "note": "Like-named read-outs stand apart in the source and are kept apart here.",
  "data": [
    {"smiles": "CCCOCN(C(=O)CCl)c1c(C)cccc1C(F)(F)F", "note": "[Example 3, N--(n-propoxymethyl)-2'-trifluoromethyl-6'-methyl-2-chloroacetanilide]", "values": [
      {"measurement": "GR85 Rate", "setting": "common purslane", "result": 0.70, "unit": "Kg/Ha"},
      {"measurement": "selectivity factor (GR15/GR85)", "setting": "common purslane; in rape", "result": 1.3},
      {"measurement": "GR85 Rate", "setting": "prickly sida", "result": "> 1.12", "unit": "Kg/Ha"},
      {"measurement": "selectivity factor (GR15/GR85)", "setting": "prickly sida; in rape", "result": "NS (non-selective)"},
      {"measurement": "GR85 Rate", "setting": "redroot pigweed", "result": 0.39, "unit": "Kg/Ha"},
      {"measurement": "selectivity factor (GR15/GR85)", "setting": "redroot pigweed; in rape", "result": 2.3},
      {"measurement": "GR85 Rate", "setting": "purple nutsedge", "result": 0.12, "unit": "Kg/Ha"},
      {"measurement": "selectivity factor (GR15/GR85)", "setting": "purple nutsedge; in rape", "result": 7.5},
      {"measurement": "GR15 Rate", "setting": "lima beans", "result": 0.49, "unit": "Kg/Ha"},
      {"measurement": "GR15 Rate", "setting": "peanuts", "result": "> 1.12", "unit": "Kg/Ha"},
      {"measurement": "inhibition at 140 g/ha", "setting": "Barnyardgrass; Drummer silt clay, 0.14 Kg/Ha, rain 0 cm", "result": 81, "unit": "%"},
      {"measurement": "inhibition at 140 g/ha", "setting": "Barnyardgrass; Drummer silt clay, 0.14 Kg/Ha, rain 1.27 cm", "result": 99, "unit": "%"},
      {"measurement": "inhibition at 140 g/ha", "setting": "Barnyardgrass; Drummer silt clay, 0.14 Kg/Ha, rain 5.08 cm", "result": 94, "unit": "%"},
      {"measurement": "inhibition at 140 g/ha", "setting": "Barnyardgrass; Drummer silt clay, 0.14 Kg/Ha, rain 10.16 cm", "result": 54, "unit": "%"},
      {"measurement": "inhibition at 560 g/ha", "setting": "Barnyardgrass; Drummer silt clay, 0.56 Kg/Ha, rain 0 cm", "result": 100, "unit": "%"},
      {"measurement": "inhibition at 560 g/ha", "setting": "Barnyardgrass; Drummer silt clay, 0.56 Kg/Ha, rain 1.27 cm", "result": 100, "unit": "%"},
      {"measurement": "inhibition at 560 g/ha", "setting": "Barnyardgrass; Drummer silt clay, 0.56 Kg/Ha, rain 5.08 cm", "result": 100, "unit": "%"},
      {"measurement": "inhibition at 560 g/ha", "setting": "Barnyardgrass; Drummer silt clay, 0.56 Kg/Ha, rain 10.16 cm", "result": 100, "unit": "%"},
      {"measurement": "inhibition at 2360 g/ha", "setting": "Barnyardgrass; Drummer silt clay, 2.36 Kg/Ha, rain 0 cm", "result": 100, "unit": "%"},
      {"measurement": "inhibition at 2360 g/ha", "setting": "Barnyardgrass; Drummer silt clay, 2.36 Kg/Ha, rain 1.27 cm", "result": 100, "unit": "%"},
      {"measurement": "inhibition at 2360 g/ha", "setting": "Barnyardgrass; Drummer silt clay, 2.36 Kg/Ha, rain 5.08 cm", "result": 100, "unit": "%"},
      {"measurement": "inhibition at 2360 g/ha", "setting": "Barnyardgrass; Drummer silt clay, 2.36 Kg/Ha, rain 10.16 cm", "result": 100, "unit": "%"},
      {"measurement": "inhibition at 140 g/ha", "setting": "Barnyardgrass; [1]", "result": 99, "unit": "%"},
      {"measurement": "inhibition at 140 g/ha", "setting": "Barnyardgrass; [2]", "result": 95, "unit": "%"},
      {"measurement": "inhibition at 140 g/ha", "setting": "Barnyardgrass; [3]", "result": 63, "unit": "%"},
      {"measurement": "inhibition at 560 g/ha", "setting": "Barnyardgrass; [4]", "result": 100, "unit": "%"},
      {"measurement": "inhibition at 560 g/ha", "setting": "Barnyardgrass; [5]", "result": 100, "unit": "%"},
      {"measurement": "inhibition at 560 g/ha", "setting": "Barnyardgrass; [6]", "result": 94, "unit": "%"},
      {"measurement": "inhibition at 560 g/ha", "setting": "Barnyardgrass; [7]", "result": 52, "unit": "%"},
      {"measurement": "inhibition at 2360 g/ha", "setting": "Barnyardgrass; [8]", "result": 100, "unit": "%"},
      {"measurement": "inhibition at 2360 g/ha", "setting": "Barnyardgrass; [9]", "result": 100, "unit": "%"},
      {"measurement": "inhibition at 2360 g/ha", "setting": "Barnyardgrass; [10]", "result": 100, "unit": "%"},
      {"measurement": "inhibition at 2360 g/ha", "setting": "Barnyardgrass; [11]", "result": 95, "unit": "%"},
      {"measurement": "inhibition at 140 g/ha", "setting": "Barnyardgrass; [12]", "result": 14, "unit": "%"},
      {"measurement": "Fresh Weight", "setting": "Barnyardgrass; [1]", "result": 0.05, "unit": "Grams"},
      {"measurement": "Fresh Weight", "setting": "Barnyardgrass; [2]", "result": 0.22, "unit": "Grams"},
      {"measurement": "Fresh Weight", "setting": "Barnyardgrass; [3]", "result": 1.53, "unit": "Grams"},
      {"measurement": "Fresh Weight", "setting": "Barnyardgrass; [12]", "result": 3.51, "unit": "Grams"},
      {"measurement": "Fresh Weight", "setting": "Barnyardgrass; [4]", "result": 0, "unit": "Grams"},
      {"measurement": "Fresh Weight", "setting": "Barnyardgrass; [5]", "result": 0, "unit": "Grams"},
      {"measurement": "Fresh Weight", "setting": "Barnyardgrass; [6]", "result": 0.24, "unit": "Grams"},
      {"measurement": "Fresh Weight", "setting": "Barnyardgrass; [7]", "result": 1.97, "unit": "Grams"},
      {"measurement": "Fresh Weight", "setting": "Barnyardgrass; [8]", "result": 0, "unit": "Grams"},
      {"measurement": "Fresh Weight", "setting": "Barnyardgrass; [9]", "result": 0, "unit": "Grams"},
      {"measurement": "Fresh Weight", "setting": "Barnyardgrass; [10]", "result": 0, "unit": "Grams"},
      {"measurement": "Fresh Weight", "setting": "Barnyardgrass; [11]", "result": 0.22, "unit": "Grams"}
    ]}
  ]
}
